How the values were obtained:
[1] = target: c-fms (Homo sapiens, UniProt P07333); details: Lackey et al., 2000; cited from earlier work
[2] = test system: JNK3; test: In vitro kinase assay, purified kinase (Upstate Kinase Profiling); format: biochemical; details: 1 uM GW5074, ATP 10 uM; percentage of control without GW5074, mean +/- SD
Description: (§1) (Lackey et al., 2000). […] A number of reports have implicated JNKs in the promotion of neuronal apoptosis both in vivo and in cell culture systems (Coffey et al., 2002). Although all three JNK proteins are expressed in neurons, the phosphorylation of c-jun is believed to be mediated by JNK2 or JNK3 (Bruckner et al., 2001; Bruckner and Estus, 2002; Coffey et al., 2002). […] In apoptotic neurons, JNK activation is mediated primarily by MKK7 (Eilers et al., 1998; Trotter et al., 2002).
(§2) In general, in vitro kinase assays were performed using purified kinase and synthetic substrates under standard conditions using the Kinase Profiling service of Upstate Biotechnology. Briefly, for each assay 5-10 mU of purified kinase was used. […] Kinase activity was quantified by measuring ^33P incorporation by spotting an aliquot on P30 filters, washing in 50 mM phosphoric acid and scintillation counting. The buffer composition for C-Raf, JNK1, JNK2, JNK3, MEK1, MKK6, MKK7 was 50 mM Tris pH7.5, 0.1 mM EGTA, 10 mM Mg acetate and [γ-^33P-ATP]. The peptide substrates used were as follows: For C-Raf, 0.66 mg/ml MBP; for cdks, 0.1 mg/ml histone H1; for JNKs, 3 uM ATF2; for MEK1, 1 uM MAPK2; for MKK6, 1 uM of SAPK2a and for MKK7, 2 uM JNK1α.

[3] = target: CDK2/cyclinE (Homo sapiens, UniProt P24941); test: as above; format: biochemical; also: ATP 10 µM
Description: as §1, §2

[4] = target: MKK7 (Homo sapiens, UniProt O14733); test: as above; format: biochemical; also: ATP 10 µM
Description: as §1, §2

[5] = test system: cerebellar granule neurons; test: MPP+-induced cell death in cerebellar granule neurons; format: cell-based, rat; details: HK + 200 uM MPP+, different concentrations of GW5074, 24 hours
[6] = target: T1, C-Raf (Rattus norvegicus, UniProt P11345); test: C-Raf Ser259 phosphorylation in neuronal cultures, Western blot; format: cell-based; details: LK + 1 uM GW5074, 0-30 min
T1 construct: Activities of endogenous C-Raf and B-Raf activity was assayed by measuring the ability of kinase immunoprecipitated from neuronal lysates; endogenous in cells; host or cells: primary rat cerebellar granule neurons
Description: The cultures were lysed and the lysate subjected to Western blot analysis using a phopho-Ser259-specific antibody.

[7] = test system: GSK3β; test: GSK3β phosphorylation in neuronal cultures, Western blot; format: cell-based, rat; details: LK + 1 uM GW5074
[8] = target: c-src (Homo sapiens, UniProt P12931); details: Lackey et al., 2000; cited from earlier work
[9] = test system: ERK 1/2; test: ERK 1/2 phosphorylation in neuronal cultures, Western blot; format: cell-based, rat; details: LK plus GW5074, 1 or 3 hours
Description: Activation of all three Raf proteins results in activation of MEK and ERK.
Survival of cerebellar granule neurons can be maintained by BDNF and this effect of BDNF is mediated by the Raf-MEK-ERK signaling pathway (Bonni et al., 1999). The Raf-MEK-ERK pathway is also involved in promoting survival of other neuronal and normeuronal cell types. A potent blocker of the Raf-MEK-ERK pathway is PD98059 (Alessi et al., 1995). In paradigms in which the Raf-MEK-ERK pathway mediates neuronal survival, such as BDNF-treated cerebellar granule neurons, the presence of […] blocks survival (Bonni et al., 1999). […] Lysates from the cultures were subjected to Western blotting using an antibody specific for phospho-ERK.
For whole-cell lysates, the culture medium was discarded, the neurons washed twice with ice-cold phosphate-buffered saline (PBS), and lysed in lysis buffer (1% Triton, 20 mM Tris-HCl (pH 7.5), 150 mM NaCl, 1 mM Na2EDTA, 1 mM EGTA, 2.5 mM sodium pyrophosphate, 1 mM beta-glycerophosphate, 1 mM Na3VO4, 1 μg/ml leupeptin and 1× protease inhibitor mixture). Protein concentrations were measured using a Bradford protein assay kit (Bio-Rad), and equivalent amounts of protein were mixed with 6×SDS-PAGE sample buffer. […] After staining with Ponceau S to verify uniformity of protein loads/transfer, the membranes were analyzed for immunoreactivity. […]

[10] = target: p38 MAP kinase (Homo sapiens, UniProt Q16539); details: Lackey et al., 2000; cited from earlier work
[11] = test system: Forkhead; test: Forkhead dephosphorylation in LK; format: cell-based, rat; details: data not shown
Method: The best-studied anti-apoptotic pathway in neurons is the PI-3 kinase-Akt signaling pathway (D'Mello et al., 1997; Dudek et al., 1997; Miller et al, 1997a). IGF-1, a potent survival-promotic factor for granule neurons mediates its effect by activating the PI-3 kinase-Akt pathway (Datta et al., 1997; Dudek et al., 1997; D'Mello et al., 1998). […] Switching cerebellar granule neurons from serum-containing HK medium in which they are cultured and allowed to mature, to serum-free LK or HK medium, causes a rapid downregulation of Akt phosphorylation and activity, which can be prevented by IGF-1 (Kumari et al., 2001). […] The same blot was reprobed with an antibody against phospho-Gskβ. Also loaded on the gel were lysates from untreated cultures (maintained in medium containing serum and high K+) and a culture treated for 1 hour with 25 ng/ml IGF-1. […] GSK3βis a proapoptotic molecule that is activated during apoptosis in many neuronal and normeuronal systems. Under survival promoting conditions GSK3β is kept inactivated by phosphorylation, a modification that can be induced by Akt. […] Another proapoptotic molecule that is phosphorylated and inactivated by Akt is the transcription factor, Forkhead ([…] et al., 2002). […] Switching of neurons to LK medium leads to a rapid downregulation of Akt activity within 2 hours.

[12] = test system: c-jun; test: c-jun phosphorylation (Ser63) and total c-jun, Western blot; format: cell-based, rat; details: LK + 1 uM GW5074, 1 and 3 hours
Method: In granule neurons, phosphorylation of c-jun occurs within 1 hour of LK treatment (Ham et al., 1995; Watson et al. 1998). […] The same blot was reprobed with an antibody against total c-jun (lower panel).
For whole-cell lysates, the culture medium was discarded, the neurons washed twice with ice-cold phosphate-buffered saline (PBS), and lysed in lysis buffer (1% Triton, 20 mM Tris-HCl (pH 7.5), 150 mM NaCl, 1 mM Na2EDTA, 1 mM EGTA, 2.5 mM sodium pyrophosphate, 1 mM beta-glycerophosphate, 1 mM Na3VO4, 1 μg/ml leupeptin and 1× protease inhibitor mixture). Protein concentrations were measured using a Bradford protein assay kit (Bio-Rad), and equivalent amounts of protein were mixed with 6×SDS-PAGE sample buffer. Following heating at 95° C. for 5 min, proteins were subjected to SDS-polyacrylamide gel electrophoresis and transferred electrophoretically to polyvinylidene difluoride membrane (PVDF; Bio Rad). After staining with Ponceau S to verify uniformity of protein loads/transfer, the membranes were analyzed for immunoreactivity. Incubation with primary antibodies was performed overnight at 4° C. and with secondary antibodies for 1 h at room temperature. Immunoreactivity was developed by enhanced chemiluminescence (ECL; Amersham) and visualized by autoradiography. All antibodies were from Cell Signaling.

Sequence of c-src (P12931 whole entry, species assumed): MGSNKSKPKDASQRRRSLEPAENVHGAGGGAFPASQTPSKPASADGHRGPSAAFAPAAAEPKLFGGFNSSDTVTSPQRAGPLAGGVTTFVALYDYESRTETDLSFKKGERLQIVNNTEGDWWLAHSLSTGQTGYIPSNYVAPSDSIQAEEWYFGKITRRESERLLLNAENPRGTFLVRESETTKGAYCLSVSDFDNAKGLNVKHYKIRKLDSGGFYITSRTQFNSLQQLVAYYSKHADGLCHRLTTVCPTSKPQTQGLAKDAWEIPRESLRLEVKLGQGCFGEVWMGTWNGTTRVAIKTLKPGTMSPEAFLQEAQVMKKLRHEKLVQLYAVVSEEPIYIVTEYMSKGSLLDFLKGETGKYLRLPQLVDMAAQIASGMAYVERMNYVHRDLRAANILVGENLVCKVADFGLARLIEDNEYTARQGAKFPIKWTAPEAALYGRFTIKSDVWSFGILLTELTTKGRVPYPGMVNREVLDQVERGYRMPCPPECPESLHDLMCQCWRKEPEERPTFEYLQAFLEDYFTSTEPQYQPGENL
Sequence of p38 MAP kinase (Q16539 whole entry): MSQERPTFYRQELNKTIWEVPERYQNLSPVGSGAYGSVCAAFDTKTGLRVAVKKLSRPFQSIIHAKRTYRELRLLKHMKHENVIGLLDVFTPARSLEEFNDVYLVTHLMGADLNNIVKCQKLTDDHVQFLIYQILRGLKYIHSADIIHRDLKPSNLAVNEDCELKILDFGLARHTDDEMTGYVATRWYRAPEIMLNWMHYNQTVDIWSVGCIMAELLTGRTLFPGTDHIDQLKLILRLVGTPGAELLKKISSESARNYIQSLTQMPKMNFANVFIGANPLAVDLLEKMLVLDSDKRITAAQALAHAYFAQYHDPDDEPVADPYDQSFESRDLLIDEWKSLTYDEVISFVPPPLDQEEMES
T1 sequence (P11345 whole entry): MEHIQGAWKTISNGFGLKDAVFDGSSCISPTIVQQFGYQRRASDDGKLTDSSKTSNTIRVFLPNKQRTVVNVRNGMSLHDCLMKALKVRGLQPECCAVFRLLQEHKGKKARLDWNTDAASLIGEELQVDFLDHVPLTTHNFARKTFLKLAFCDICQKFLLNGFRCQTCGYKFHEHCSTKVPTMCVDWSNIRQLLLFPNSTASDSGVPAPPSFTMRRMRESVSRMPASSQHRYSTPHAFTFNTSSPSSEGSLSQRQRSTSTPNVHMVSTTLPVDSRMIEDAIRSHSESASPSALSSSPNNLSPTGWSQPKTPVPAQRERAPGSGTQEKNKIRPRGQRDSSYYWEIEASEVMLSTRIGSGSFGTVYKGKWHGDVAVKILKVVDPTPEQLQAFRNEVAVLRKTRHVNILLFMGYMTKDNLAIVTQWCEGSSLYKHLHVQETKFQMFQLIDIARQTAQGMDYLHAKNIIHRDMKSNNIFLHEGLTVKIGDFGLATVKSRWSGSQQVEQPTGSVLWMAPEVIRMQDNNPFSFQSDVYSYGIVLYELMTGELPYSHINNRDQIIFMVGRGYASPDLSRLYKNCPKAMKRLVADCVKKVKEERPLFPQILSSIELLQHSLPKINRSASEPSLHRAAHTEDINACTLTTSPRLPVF
Sequence of MKK7 (O14733 whole entry, species assumed): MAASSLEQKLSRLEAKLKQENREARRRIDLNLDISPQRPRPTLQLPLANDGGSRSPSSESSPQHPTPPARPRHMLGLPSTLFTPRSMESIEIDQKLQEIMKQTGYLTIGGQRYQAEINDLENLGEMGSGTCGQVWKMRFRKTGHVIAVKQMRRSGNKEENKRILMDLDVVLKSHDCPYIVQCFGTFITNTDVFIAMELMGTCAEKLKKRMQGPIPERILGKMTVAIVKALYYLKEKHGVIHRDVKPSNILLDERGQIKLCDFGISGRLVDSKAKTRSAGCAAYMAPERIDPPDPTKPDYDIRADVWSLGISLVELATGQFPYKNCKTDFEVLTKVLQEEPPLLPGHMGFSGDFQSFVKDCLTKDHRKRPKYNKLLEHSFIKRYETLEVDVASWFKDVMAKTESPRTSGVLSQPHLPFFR
Sequence of c-fms (P07333 20-972): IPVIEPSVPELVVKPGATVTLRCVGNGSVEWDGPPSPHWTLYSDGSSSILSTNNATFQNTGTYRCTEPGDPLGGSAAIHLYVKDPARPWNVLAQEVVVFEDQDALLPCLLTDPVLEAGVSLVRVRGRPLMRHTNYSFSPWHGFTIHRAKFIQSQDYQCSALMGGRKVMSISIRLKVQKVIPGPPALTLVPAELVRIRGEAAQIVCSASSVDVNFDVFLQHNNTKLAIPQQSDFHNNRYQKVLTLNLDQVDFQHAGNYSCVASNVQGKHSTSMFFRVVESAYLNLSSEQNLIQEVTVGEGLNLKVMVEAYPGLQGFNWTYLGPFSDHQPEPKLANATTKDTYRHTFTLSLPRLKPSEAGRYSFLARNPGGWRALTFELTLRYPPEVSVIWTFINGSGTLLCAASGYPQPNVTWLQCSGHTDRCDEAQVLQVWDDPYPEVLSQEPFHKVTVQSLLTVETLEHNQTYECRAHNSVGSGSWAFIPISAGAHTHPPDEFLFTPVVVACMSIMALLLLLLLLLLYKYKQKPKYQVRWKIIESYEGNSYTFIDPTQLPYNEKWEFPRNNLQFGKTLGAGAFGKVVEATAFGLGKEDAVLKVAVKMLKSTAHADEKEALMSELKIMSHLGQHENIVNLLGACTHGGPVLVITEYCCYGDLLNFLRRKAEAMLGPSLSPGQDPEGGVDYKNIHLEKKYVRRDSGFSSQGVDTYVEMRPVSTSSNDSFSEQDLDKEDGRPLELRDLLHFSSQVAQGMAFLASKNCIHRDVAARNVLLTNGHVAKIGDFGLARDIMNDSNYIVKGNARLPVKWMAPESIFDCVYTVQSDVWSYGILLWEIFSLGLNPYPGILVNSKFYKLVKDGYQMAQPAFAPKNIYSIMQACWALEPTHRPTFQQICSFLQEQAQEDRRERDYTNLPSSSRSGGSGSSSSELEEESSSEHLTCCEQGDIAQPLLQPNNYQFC

O=C1Nc2ccc(I)cc2C1=Cc1cc(Br)c(O)c(Br)c1 [GW5074, 5-Iodo-3-[(3,5-dibromo-4-hydroxyphenyl)methylene]-2-indolinone]
effect on activity of c-fms [1]: no effect
% ACTIVITY JNK3 [2]: 89 ± 9%
activity at 1 µM [3]: 100 ± 5%
activity at 1 µM [4]: 104 ± 8%
MPP+-induced cell death [5]: reduced MPP^+-induced cell death
phosphorylation of C-Raf at Ser259 [6]: rapid increase in Ser259 phosphorylation
activation of GSK3β after switch to LK [7]: prevents the activation of GSK3
effect on activity of c-src [8]: no effect
phosphorylation of ERK 1/2 [9]: increase in the phosphorylation of ERK 1/2
effect on activity of p38 MAP kinase [10]: no effect
dephosphorylation of Forkhead in LK [11]: reduces the dephosphorylation
LK-induced c-jun phosphorylation and synthesis [12]: prevents LK-induced c-jun phosphorylation and its increased synthesis

From patent US20050250837A1, “Use of C-Raf inhibitors for the treatment of neurodegenerative diseases” (priority 2002, published 2005)
